Measured values taken from patent US12466875B2, “Supramolecular high affinity protein-binding system for purification of biomacromolecules” (THE JOHNS HOPKINS UNIVERSITY, priority 2017, dated 2025).
Entries after “also recorded” stand apart in the source; their conditions may differ.

Test system: FITC-IgG
Experiment: Confocal fluorescence imaging with FITC-IgG
Type: binding
Conditions: 2 μM FITC-IgG in PBS pH 7.4
Excerpt: FIGS. 10A-C. […] (A) Image of Rhodamine B fluorescence. (B) Image of FITC fluorescence and (C) merged image of (A) and (B). Scale bar: 20 μm.
To better visualize the interactions between C12-Z33 immunofibers and IgG, labelling the C12-Z33 with the fluorescent dye (Rhodamine B) allows for direct imaging of fluorescent immunofibers and FITC-IgG under a confocal laser scanning microscope. Rhodamine B has been extensively used for staining biomaterials. […] The self-assembled fibrous morphology in PBS was confirmed using TEM (FIG. 9C). 100 μM RB-C12-Z33 diluted from a 1 mM stock solution and 2 μM FITC-IgG were premixed in PBS. 30 μl solution was spotted on a clean microscope slide right before imaging and covered by a coverslip to obtain a thin layer of liquid.

Substance: RB-C12-Z33: Rhodamine B labelled C12-Z33; lysine added at N-terminal of Z33, Rhodamine B and C12 conjugated to its amine groups
- fluorescence of FITC-IgG after incubation (confocal): co-localization of the fluorescence signal; also recorded: co-localization of fluorescence signals
